Where a SMILES comes first, the peptide text is derived from it. Bridges are numbered along the chain shown (N, C = ends). [ ]: non-standard residue; d: D form. The star is where a group is joined. Bip = N[C@@H](Cc1ccc(-c2ccccc2)cc1)C(=O)O; 2Nal = N[C@@H](Cc1ccc2ccccc2c1)C(=O)O; d(aIle) = CC[C@H](C)[C@@H](N)C(=O)O; d(aThr) = C[C@@H](O)[C@@H](N)C(=O)O; Hexanoyl(5-Me) = CC(C)CCCC(=O)*; Phg = N[C@H](C(=O)O)c1ccccc1; Orn = NCCC[C@H](N)C(=O)O; Dhb = C/C=C(\N)C(=O)O
How the values were obtained:
Format in all cases: cell-based, human
HeLa = assay: SRB colorimetric assay of cell growth and viability, HeLa; conditions: HELA, 48 hours exposure; for CC50: read-out: LC50 HELA
HT-29 = assay: SRB colorimetric assay of cell growth and viability, HT-29; conditions: HT-29, 48 hours exposure; for GI50: read-out: GI50 HT-29; for CC50: read-out: LC50 HT-29
LoVo-Dox = assay: SRB colorimetric assay of cell growth and viability, LoVo-Dox; conditions: LOVO-DOX, 48 hours exposure; for CC50: read-out: LC50 LOVO-DOX
In short: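 SRB staining (0.4% wt/vol in 1% acetic acid, 10 min, room temperature) of cells fixed with 50% TCA follows a 48-hour exposure to compound. Plating density is 5×10^3 cells/well, and the OD is taken at 490 nm.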

DU-145 = assay: SRB colorimetric assay of cell growth and viability, DU-145; conditions: DU-145; 48 hours exposure
K-562 = assay: SRB colorimetric assay of cell growth and viability, K-562; conditions: K-562, 48 hours exposure; for CC50: read-out: LC50 K-562
IGROV-1 = assay: SRB colorimetric assay of cell growth and viability, IGROV-1; conditions: IGROV; 48 hours exposure
IGROV-ET = assay: SRB colorimetric assay of cell growth and viability, IGROV-ET; conditions: IGROV-ET, 48 hours exposure; for CC50: read-out: LC50 IGROV-ET
HeLa-APL = assay: SRB colorimetric assay of cell growth and viability, HeLa-APL; conditions: HELA-APL, 48 hours exposure; for CC50: read-out: LC50 HELA-APL
SK-BR-3 = assay: SRB colorimetric assay of cell growth and viability, SK-BR-3; conditions: SK-BR-3; 48 hours exposure
A-549 = assay: SRB colorimetric assay of cell growth and viability, A-549; conditions: A-549, 48 hours exposure; for GI50: read-out: GI50 A-549; for CC50: read-out: LC50 A-549
SK-MEL-28 = assay: SRB colorimetric assay of cell growth and viability, SK-MEL-28; conditions: MEL-28, 48 hours exposure; for CC50: read-out: LC50 MEL-28
PANC-1 = assay: SRB colorimetric assay of cell growth and viability, PANC-1; conditions: PANC-1, 48 hours exposure; for CC50: read-out: LC50 PANC-1
LoVo = assay: SRB colorimetric assay of cell growth and viability, LoVo; conditions: LOVO, 48 hours exposure; for CC50: read-out: LC50 LOVO

## C/C=C1\NC(=O)[C@H](Cc2ccc(F)c(F)c2)NC(=O)[C@@H](C(C)C)NC(=O)[C@@H]([C@@H](C)CC)NC(=O)[C@H](NC(=O)[C@H](NC(=O)[C@H](CCCN)NC(=O)[C@H]2CCCN2C(=O)[C@H](NC(=O)[C@@H](NC(=O)[C@@H](NC(=O)[C@H](NC(=O)CCCC(C)C)C(C)C)[C@@H](C)O)C(C)C)C(C)C)[C@@H](C)CC)[C@@H](C)OC(=O)[C@H](C(C)C)NC1=O [Compound 84, [Phe(3,4-F2)^3]-KF]
HeLa
  GI50: 70.6 nM
  TGI HELA: 2.17E−07 Molar
  CC50: 451 nM
HT-29
  TGI HT-29: 9.77E−08 Molar
  GI50: 62.7 nM
  CC50: 152 nM
LoVo-Dox
  GI50: 32.3 nM
  TGI LOVO-DOX: 6.88E−08 Molar
  CC50: 176 nM
DU-145
  GI50: 111 nM
  LC50 (concentration causing 50% net cell kill): 463 nM
  TGI DU-145: 2.54E−07 Molar
K-562
  GI50: 560 nM
  TGI K-562: 9.28E−07 Molar
  CC50: 1420 nM
IGROV-1
  GI50: 47.2 nM
  LC50 (concentration causing 50% net cell killing): 155 nM
  TGI IGROV: 9.40E−08 Molar
IGROV-ET
  GI50: 65.1 nM
  TGI IGROV-ET: 1.16E−07 Molar
  CC50: 343 nM
HeLa-APL
  GI50: 117 nM
  TGI HELA-APL: 2.49E−07 Molar
  CC50: 467 nM
SK-BR-3
  GI50: 27.3 nM
  LC50: 136 nM
  TGI SK-BR-3: 5.34E−08 Molar
A-549
  TGI A-549: 3.96E−07 Molar
  GI50: 224 nM
  CC50: 848 nM
SK-MEL-28
  GI50: 224 nM
  TGI MEL-28: 3.55E−07 Molar
  CC50: 561 nM
PANC-1
  GI50: 725 nM
  TGI PANC-1: 1.17E−06 Molar
  CC50: 1840 nM
LoVo
  GI50: 31.7 nM
  TGI LOVO: 7.25E−08 Molar
  CC50: 150 nM

## C/C=C1\NC(=O)[C@H](Cc2ccc3ccccc3c2)NC(=O)[C@@H](C(C)C)NC(=O)[C@@H]([C@@H](C)CC)NC(=O)[C@H](NC(=O)[C@H](NC(=O)[C@H](CCCN)NC(=O)[C@H]2CCCN2C(=O)[C@H](NC(=O)[C@@H](NC(=O)[C@@H](NC(=O)[C@H](NC(=O)CCCC(C)C)C(C)C)[C@@H](C)O)C(C)C)C(C)C)[C@@H](C)CC)[C@@H](C)OC(=O)[C@H](C(C)C)NC1=O [Compound 85, [Nal^3]-KF] ({Hexanoyl(5-Me)}-[dV]TV[dV][dP][Orn][d(aIle)][d(aThr)][d(aIle)][dV][2Nal][Dhb]V; ester 8-C)
HeLa
  GI50: 78.6 nM
  TGI HELA: 1.94E−07 Molar
  CC50: 462 nM
HT-29
  TGI HT-29: 1.16E−07 Molar
  GI50: 73.1 nM
  CC50: 278 nM
LoVo-Dox
  GI50: 37 nM
  TGI LOVO-DOX: 8.77E−08 Molar
  CC50: 847 nM
DU-145
  GI50: 111 nM
  LC50 (concentration causing 50% net cell kill): 488 nM
  TGI DU-145: 2.53E−07 Molar
K-562
  GI50: 301 nM
  TGI K-562: 7.13E−07 Molar
  CC50: 1380 nM
IGROV-1
  GI50: 49.8 nM
  LC50 (concentration causing 50% net cell killing): 169 nM
  TGI IGROV: 9.81E−08 Molar
IGROV-ET
  GI50: 74.3 nM
  TGI IGROV-ET: 1.44E−07 Molar
  CC50: 425 nM
HeLa-APL
  GI50: 90.7 nM
  TGI HELA-APL: 1.91E−07 Molar
  CC50: 427 nM
SK-BR-3
  GI50: 37.1 nM
  LC50: 170 nM
  TGI SK-BR-3: 5.80E−08 Molar
A-549
  TGI A-549: 3.39E−07 Molar
  GI50: 192 nM
  CC50: 599 nM
SK-MEL-28
  GI50: 230 nM
  TGI MEL-28: 3.64E−07 Molar
  CC50: 579 nM
PANC-1
  GI50: 694 nM
  TGI PANC-1: 1.04E−06 Molar
  CC50: 1570 nM
LoVo
  GI50: 32.8 nM
  TGI LOVO: 8.16E−08 Molar
  CC50: 192 nM

## C/C=C1\NC(=O)[C@H](Cc2ccc(-c3ccccc3)cc2)NC(=O)[C@@H](C(C)C)NC(=O)[C@@H]([C@@H](C)CC)NC(=O)[C@H](NC(=O)[C@H](NC(=O)[C@H](CCCN)NC(=O)[C@H]2CCCN2C(=O)[C@H](NC(=O)[C@@H](NC(=O)[C@@H](NC(=O)[C@H](NC(=O)CCCC(C)C)C(C)C)[C@@H](C)O)C(C)C)C(C)C)[C@@H](C)CC)[C@@H](C)OC(=O)[C@H](C(C)C)NC1=O [Compound 86, [Bip^3]-KF] ({Hexanoyl(5-Me)}-[dV]TV[dV][dP][Orn][d(aIle)][d(aThr)][d(aIle)][dV][Bip][Dhb]V; ester 8-C)
HeLa
  GI50: 177 nM
  TGI HELA: 8.17E−07 Molar
  CC50: 3900 nM
HT-29
  TGI HT-29: 3.73E−07 Molar
  GI50: 129 nM
  CC50: 5070 nM
LoVo-Dox
  GI50: 73.3 nM
  TGI LOVO-DOX: 2.69E−07 Molar
  CC50: ≥ 6430 nM
DU-145
  GI50: 124 nM
  LC50 (concentration causing 50% net cell kill): 527 nM
  TGI DU-145: 2.56E−07 Molar
K-562
  GI50: 1100 nM
  TGI K-562: 2.32E−06 Molar
  CC50: 4870 nM
IGROV-1
  GI50: 181 nM
  LC50 (concentration causing 50% net cell killing): ≥ 6430 nM
  TGI IGROV: 5.23E−07 Molar
IGROV-ET
  GI50: 150 nM
  TGI IGROV-ET: 1.00E−06 Molar
  CC50: ≥ 6430 nM
HeLa-APL
  GI50: 424 nM
  TGI HELA-APL: 1.65E−06 Molar
  CC50: 6070 nM
SK-BR-3
  GI50: 28.9 nM
  LC50: 5070 nM
  TGI SK-BR-3: 1.79E−07 Molar
A-549
  TGI A-549: 2.87E−07 Molar
  GI50: 125 nM
  CC50: 810 nM
SK-MEL-28
  GI50: 183 nM
  TGI MEL-28: 4.11E−07 Molar
  CC50: 2480 nM
PANC-1
  GI50: 984 nM
  TGI PANC-1: 2.17E−06 Molar
  CC50: 4770 nM
LoVo
  GI50: 63.7 nM
  TGI LOVO: 2.89E−07 Molar
  CC50: 4680 nM

## C/C=C1\NC(=O)[C@H](c2ccccc2)NC(=O)[C@@H](C(C)C)NC(=O)[C@@H]([C@@H](C)CC)NC(=O)[C@H](NC(=O)[C@H](NC(=O)[C@H](CCCN)NC(=O)[C@H]2CCCN2C(=O)[C@H](NC(=O)[C@@H](NC(=O)[C@@H](NC(=O)[C@H](NC(=O)CCCC(C)C)C(C)C)[C@@H](C)O)C(C)C)C(C)C)[C@@H](C)CC)[C@@H](C)OC(=O)[C@H](C(C)C)NC1=O [Compound 87, [Phg^3]-KF] ({Hexanoyl(5-Me)}-[dV]TV[dV][dP][Orn][d(aIle)][d(aThr)][d(aIle)][dV][Phg][Dhb]V; ester 8-C)
HeLa
  GI50: 1900 nM
  TGI HELA: 1.90E−06 Molar
  CC50: 1900 nM
HT-29
  TGI HT-29: 1.90E−06 Molar
  GI50: 1580 nM
  CC50: 1900 nM
LoVo-Dox
  GI50: 513 nM
  TGI LOVO-DOX: 1.32E−06 Molar
  CC50: 1900 nM
DU-145
  GI50: 1900 nM
  LC50 (concentration causing 50% net cell kill): 1900 nM
  TGI DU-145: 1.90E−06 Molar
K-562
  GI50: 1900 nM
  TGI K-562: 1.90E−06 Molar
  CC50: 1900 nM
IGROV-1
  GI50: 919 nM
  LC50 (concentration causing 50% net cell killing): 1900 nM
  TGI IGROV: 1.90E−06 Molar
IGROV-ET
  GI50: 1290 nM
  TGI IGROV-ET: 1.90E−06 Molar
  CC50: 1900 nM
HeLa-APL
  GI50: 1900 nM
  TGI HELA-APL: 1.90E−06 Molar
  CC50: 1900 nM
SK-BR-3
  GI50: 748 nM
  LC50: 1870 nM
  TGI SK-BR-3: 1.19E−06 Molar
A-549
  TGI A-549: 1.90E−06 Molar
  GI50: 1900 nM
  CC50: 1900 nM
SK-MEL-28
  GI50: 1900 nM
  TGI MEL-28: 1.90E−06 Molar
  CC50: 1900 nM
PANC-1
  GI50: 1900 nM
  TGI PANC-1: 1.90E−06 Molar
  CC50: 1900 nM
LoVo
  GI50: 957 nM
  TGI LOVO: 1.90E−06 Molar
  CC50: 1900 nM
